Experimental findings from ChEMBL document CHEMBL4715874, “In Vivo Screening of Xanthones from Garcinia oligantha Identified Oliganthin H as a Novel Natural Inhibitor of Convulsions” (J Nat Prod, 2020) are described below.

Activity calls are given as the source filed them. No cut-off for these calls is given here.

Data set [1] is described as follows: Toxicity in AB zebra fish larvae assessed as mortality at >= 25 uM after 6 hrs. Set-up: species or system Danio rerio. To be noted: zebrafish.
Data set [2] in a line: Neurotoxicity in AB zebra fish larvae at 25 uM after 6 hrs. It counts as toxicity, Danio rerio. Conditions: zebrafish.
Data set [3] in a line: Toxicity in AB zebra fish larvae assessed as maximum tolerated concentration after 6 hrs. Also noted: species or system Danio rerio. To be noted: zebrafish, read-out: MTC.
Data set [4] is described as follows: Neurotoxicity in AB zebra fish larvae assessed as decrease in total swimming distance at <= MTC after 6 hrs. The class given is toxicity, Danio rerio. Conditions: zebrafish.
Data set [5] in a line: Neurotoxicity in AB zebra fish larvae assessed as increase in total swimming distance at > 12.5 uM after 6 hrs. The class given is toxicity, Danio rerio. To be noted: zebrafish.
The species named for data set [6] is Danio rerio. Put plainly: Anticonvulsant activity in AB zebra fish larvae assessed as reduction in PTZ-induced convulsant behavior by measuring swimming distance at 3.1 to 12.5 uM pretreated for 6 hrs followed by PTZ-stimulation and measured every 5 mins for 1 hr. The class given is functional, organism-based. To be noted: dose 3.1-12.5 µM, time 7.0 hrs.
The species named for data set [7] is Danio rerio. Put plainly: Anticonvulsant activity in AB zebra fish larvae assessed as reduction in PTZ-induced convulsant behavior by measuring lowest observed effect concentration pretreated for 6 hrs followed by PTZ-stimulation and measured every 5 mins for 1 hr. It counts as functional. To be noted: time 7 hrs.
Data set [8] can be described thus: Ratio of MTC for toxicity in AB zebra fish larvae to lowest observed effect concentration for Anticonvulsant activity in AB zebra fish larvae assessed as reduction in PTZ-induced convulsant behavior. Set-up: species or system Danio rerio.

As for `CC(C)=CCC1(CC=C(C)C)C(=O)C(O)=C(O)c2oc3c4c(cc(O)c3c(=O)c21)OC(C)(C)C=C4`, the Activity entry in data set [1] was “Toxic”; in data set [2] it was “Toxic”; in data set [4], “Non-Toxic”; in data set [5] it was “Toxic”; in data set [7], over 12.5 µM. Besides, the MNTC at 6 h in data set [3] amounted to 12.5 µM. Besides, in data set [6], the outcome was inactive. For the same compound, the Ratio in data set [8] is under 1.
